According to article PMC2580763, “Product inhibition of secreted phospholipase A2 may explain lysophosphatidylcholines' unexpected therapeutic properties” (Journal of Inflammation (London, England), 2008):

Tests used:
plasma sPLA2 [1] = test: sPLA2 enzyme activity in rat plasma ex vivo with added lysoPC (10-pyrene substrate); type: biochemical; conditions: for type of inhibition of plasma sPLA2 enzyme activity: kinetic studies, rat plasma ex vivo; for Ki / Km / Vmax: lysoPC 20 μM; for Ki: all reactions with substrates above 15 μM, read-out: Ki ± s.e.m.; for Km / Vmax: plasma 10% final
Method: (§1) Blood was obtained from the trunk of 32 female Sprague Dawley rats (200–250 g) after decapitation. Blood samples were treated with citrate-phosphate-dextrose anticoagulant (1:10, Sigma), and plasma prepared by centrifugation after which samples were frozen at -80° until used. For 16 of these animals, plasma samples were pooled from 4–6 rats for ex vivo enzyme assays. The other 16 rats received lysoPC treatments (see below). The Institutional Animal Care and Use Committee of Drexel University College of Medicine approved all specific procedures of this study. Purified group IA secreted phospholipase A2 from the venom of the Mozambique spitting cobra (Naja mossambica) was obtained from Sigma (St. Louis, MO).
(§2) Enzyme assays were conducted as in previous studies using a Victor 3 fluorescent reader (Perkin Elmer, Waltham, MA). The substrate was 1-palmitoyl-2-pyrenedecanoyl phosphatidylcholine ("10-pyrene"), Caymen Chemical, Ann Arbor MI) a substrate for all calcium dependent PLA2s with the exception of cPLA2 and PAF-AH (LP-PLA2). Substrate solutions were prepared in reaction buffer consisting of 50 mM tris (pH = 7.4), 0.1 M NaCl, 2 mM CaCl2, 0.25% fatty acid-free albumin. The substrate forms phospholipids vesicles in this solution [37], and upon hydrolysis, releases fluorescent 10-pyrenyldecanoic acid (PDA). Plasma samples were 10% final and mixed with lysoPCs by gentle shaking for 100 sec, or they were derived from lysoPC-injected rats. All enzyme reactions were initiated with the addition of the substrate solution to the sPLA2 containing samples. Kinetic parameters including the properties of lysoPC inhibitors were determined by recording the initial maximum velocities (Vo) of enzyme reactions, obtained within 2 minutes of initiation. A detailed presentation of the calculations used in our kinetic analysis has been presented. Relative fluorescent units (RFU) were converted to product concentration using a standard curve made with pyrenyldecanoic acid (Invitrogen, Eugene, OR). Individual reactions were carried out in duplicate or triplicate and kinetic curves were produced using at least 6 substrate concentrations, with lysoPC or its vehicle (PBS with 8% ethanol). Representative Lineweaver-Burk and Michaelis-Menten plots as well as nonlinear regression analyses are presented in Results. Experiments were repeated at least 4 times with similar results. […] These calculations, and Km, Vmax and R^2 were made with statistical (INSTAT) and regression software (Prism), both from Graphpad (San Diego, CA).

group IA sPLA2 = test: purified group IA sPLA2 enzyme activity in vitro with added lysoPC (10-pyrene substrate); type: biochemical, Naja mossambica; conditions: for type of inhibition of group IA sPLA2: lower range of substrate concentrations, added lysoPCs; for Km / Vmax: 15 nM group IA sPLA2
Method: as §1, §2

plasma sPLA2 [2] = test: plasma sPLA2 activity of rats after subcutaneous lysoPC injection; type: in vivo; conditions: rat, subcutaneous 25 mg/kg, 2 hrs after injection; PDA generated in 1 hr
Method: Enzyme assays were conducted as in previous studies using a Victor 3 fluorescent reader (Perkin Elmer, Waltham, MA). The substrate was 1-palmitoyl-2-pyrenedecanoyl phosphatidylcholine ("10-pyrene"), Caymen Chemical, Ann Arbor MI) a substrate for all calcium dependent PLA2s with the exception of cPLA2 and PAF-AH (LP-PLA2). Substrate solutions were prepared in reaction buffer consisting of 50 mM tris (pH = 7.4), 0.1 M NaCl, 2 mM CaCl2, 0.25% fatty acid-free albumin. The substrate forms phospholipids vesicles in this solution [37], and upon hydrolysis, releases fluorescent 10-pyrenyldecanoic acid (PDA). Plasma samples were 10% final and mixed with lysoPCs by gentle shaking for 100 sec, or they were derived from lysoPC-injected rats. […] Kinetic parameters including the properties of lysoPC inhibitors were determined by recording the initial maximum velocities (Vo) of enzyme reactions, obtained within 2 minutes of initiation. […]
Rats were injected subcutaneously under the loose skin at the shoulders with synthetic stearoyl (n = 4) or palmitoyl (n = 4) lysoPCs (25 mg/kg) two hrs before sacrifice and compared to vehicle-injected rats (n = 8). The relative concentrations of active sPLA2 enzymes were measured in plasma samples of these animals by determining the total hydrolysis of substrate in 1 hr.

| SMILES | type of inhibition of plasma sPLA2 enzyme activity (plasma sPLA2 [1]) | Ki (plasma sPLA2 [1]) | Km (plasma sPLA2 [1]) | Vmax (plasma sPLA2 [1]) | type of inhibition of group IA sPLA2 (group IA sPLA2) | range of plasma sPLA2 activities compared with vehicle-injected control rats (plasma sPLA2 [2]) | inhibition of group IA sPLA2 (group IA sPLA2; 40 μM lysoPC, 30 μM substrate) | Km (group IA sPLA2; lysoPC 40 μM) | Vmax (group IA sPLA2; lysoPC 40 μM) | percent inhibition (percent reduction in Vo) (group IA sPLA2; 40 μM lysoPC preincubated with 5% albumin (> 600 μM), n = 4) | percent inhibition (percent reduction in Vo) (group IA sPLA2; 40 μM lysoPC, standard buffer (0.25% albumin), n = 8) | Km (group IA sPLA2; lysoPC 10 μM) | Vmax (group IA sPLA2; lysoPC 10 μM) | Km (group IA sPLA2; lysoPC 20 μM) | Vmax (group IA sPLA2; lysoPC 20 μM) |
| --- | --- | --- | --- | --- | --- | --- | --- | --- | --- | --- | --- | --- | --- | --- | --- |
| CCCCCCCCCCCCCCCC(=O)OC[C@@H](O)COP(=O)([O-])OCC[N+](C)(C)C [Palmitoyl, palmitoyl lysoPC] | uncompetitive inhibitors | 25.9 ± 4 µM | 16.1 µM | 684.7 nM/min/ml | Uncompetitive inhibition | significantly lower and narrower |  |  |  |  |  |  |  |  |  |
| CCCCCCCCCC(=O)OC[C@@H](O)COP(=O)([O-])OCC[N+](C)(C)C [Decanoyl, Decanoyl lysoPC, reference compound] |  |  |  |  |  |  | failed to show inhibition | 25 µM | 342.4 μM/min/ml |  |  |  |  |  |  |
| CCCCCCCCCCCCCCCCCC(=O)OC[C@@H](O)COP(=O)([O-])OCC[N+](C)(C)C [Stearoyl, stearoyl lysoPC] | uncompetitive inhibitors | 34.2 ± 17.4 µM | 11.3 µM | 669.2 nM/min/ml | Uncompetitive inhibition | significantly lower and narrower |  | 7.31 µM | 92.15 μM/min/ml | 29.3 ± 1.6% | 63 ± 6% | 9.37 µM | 221.9 μM/min/ml | 5.92 µM | 156.2 μM/min/ml |
